Laboratory results: BindingDB's records for doi:10.1021/jm000541z (Abbott Laboratories, 2001)

Each molecule was assayed against Alpha-1B adrenergic receptor (Mesocricetus auratus) (UniProt P18841) (assay: Binding affinity to hamster alpha-1B adrenergic receptor).
Sequence of Alpha-1B adrenergic receptor (Mesocricetus auratus) (P18841 whole entry, looked up): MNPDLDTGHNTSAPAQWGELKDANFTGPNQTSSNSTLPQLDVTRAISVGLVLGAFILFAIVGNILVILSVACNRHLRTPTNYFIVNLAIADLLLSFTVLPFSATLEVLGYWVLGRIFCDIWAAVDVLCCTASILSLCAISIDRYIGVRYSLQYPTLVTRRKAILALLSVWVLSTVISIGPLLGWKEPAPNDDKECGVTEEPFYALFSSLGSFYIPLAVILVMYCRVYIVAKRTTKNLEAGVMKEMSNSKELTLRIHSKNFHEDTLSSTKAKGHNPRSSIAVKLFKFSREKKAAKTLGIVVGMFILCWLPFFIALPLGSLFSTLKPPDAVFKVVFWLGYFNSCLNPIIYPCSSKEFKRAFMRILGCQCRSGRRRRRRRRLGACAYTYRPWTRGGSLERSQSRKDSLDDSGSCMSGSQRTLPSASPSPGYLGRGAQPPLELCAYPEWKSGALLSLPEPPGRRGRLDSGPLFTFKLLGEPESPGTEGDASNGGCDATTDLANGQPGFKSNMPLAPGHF

Structure (SMILES)	Ki [nM]
COc1cccc2c1CC[C@H]1CN(CCn3c(=O)[nH]c4cnccc4c3=O)C[C@@H]21 [3-[2-(6-Methoxy-1,3,3a,4,5,9b-hexahydro-benzo[e]isoindol-2-yl)-ethyl]-1H-pyrido[3,4-d]pyrimidine-2,4-dione]	3.1
COc1cc(N)c(C(=O)NCCN2C[C@@H]3CCc4c(OC)cccc4[C@@H]3C2)cc1OC [2-Amino-4,5-dimethoxy-N-[2-(6-methoxy-1,3,3a,4,5,9b-hexahydro-benzo[e]isoindol-2-yl)-ethyl]-benzamide]	29.1
COc1cccc2c1CC[C@H]1CN(CCn3c(=O)[nH]c4ccsc4c3=O)C[C@@H]21 [3-[2-(6-Methoxy-1,3,3a,4,5,9b-hexahydro-benzo[e]isoindol-2-yl)-ethyl]-1H-thieno[3,2-d]pyrimidine-2,4-dione]	1.63
COc1cccc2c1CC[C@H]1CN(CCn3c(=O)[nH]c4cc(C)c(C)cc4c3=O)C[C@@H]21 [3-[2-(6-Methoxy-1,3,3a,4,5,9b-hexahydro-benzo[e]isoindol-2-yl)-ethyl]-6,7-dimethyl-1H-quinazoline-2,4-dione]	4.07
COc1cc2c(cc1OC)C(=O)N(CCN1C[C@@H]3CCc4c(OC)cccc4[C@@H]3C1)CN2 [6,7-Dimethoxy-3-[2-(6-methoxy-1,3,3a,4,5,9b-hexahydro-benzo[e]isoindol-2-yl)-ethyl]-2,3-dihydro-1H-quinazolin-4-one]	95.2
COc1cccc2c1CC[C@H]1CN(CCn3c(=O)[nH]c4ncccc4c3=O)C[C@@H]21 [3-[2-(6-Methoxy-1,3,3a,4,5,9b-hexahydro-benzo[e]isoindol-2-yl)-ethyl]-1H-pyrido[2,3-d]pyrimidine-2,4-dione]	3.31
COc1cccc2c1CC[C@H]1CN(CCn3c(=O)[nH]c4cscc4c3=O)C[C@@H]21 [3-[2-(6-Methoxy-1,3,3a,4,5,9b-hexahydro-benzo[e]isoindol-2-yl)-ethyl]-1H-thieno[3,4-d]pyrimidine-2,4-dione]	1.01
COc1cccc2c1CC[C@H]1CN(CCn3c(=O)[nH]c4c(C)cc(C)cc4c3=O)C[C@@H]21 [3-[2-(6-Methoxy-1,3,3a,4,5,9b-hexahydro-benzo[e]isoindol-2-yl)-ethyl]-6,8-dimethyl-1H-quinazoline-2,4-dione]	16.3
COc1cc2c(cc1OC)NC(=O)N(CCN1C[C@@H]3CCc4c(OC)cccc4[C@@H]3C1)C2 [6,7-Dimethoxy-3-[2-(6-methoxy-1,3,3a,4,5,9b-hexahydro-benzo[e]isoindol-2-yl)-ethyl]-3,4-dihydro-1H-quinazolin-2-one]	191
COc1cccc2c1CC[C@H]1CN(CCn3c(=O)[nH]c4cc(NC(C)=O)ccc4c3=O)C[C@@H]21 [N-{3-[2-(6-Methoxy-1,3,3a,4,5,9b-hexahydro-benzo[e]isoindol-2-yl)-ethyl]-2,4-dioxo-1,2,3,4-tetrahydro-quinazolin-7-yl}-acetamide]	0.84
COc1cccc2c1CC[C@H]1CN(CCn3c(=O)[nH]c4cc(-c5ccccc5)sc4c3=O)C[C@@H]21 [3-[2-(6-Methoxy-1,3,3a,4,5,9b-hexahydro-benzo[e]isoindol-2-yl)-ethyl]-6-phenyl-1H-thieno[3,2-d]pyrimidine-2,4-dione]	11.3
COc1cccc2c1CC[C@H]1CN(CCn3c(=O)[nH]c4c(sc5ncc(Cl)nc54)c3=O)C[C@@H]21 [3-Chloro-7-[2-(6-methoxy-1,3,3a,4,5,9b-hexahydro-benzo[e]isoindol-2-yl)-ethyl]-5H-9-thia-1,4,5,7-tetraaza-fluorene-6,8-dione]	35.1
COc1cc2ncn(CCN3C[C@@H]4CCc5c(OC)cccc5[C@@H]4C3)c(=O)c2cc1OC [6,7-Dimethoxy-3-[2-(6-methoxy-1,3,3a,4,5,9b-hexahydro-benzo[e]isoindol-2-yl)-ethyl]-3H-quinazolin-4-one]	15.3
COc1cc2[nH]c(=O)n(CCN3C[C@@H]4CCc5c(OC)cccc5[C@@H]4C3)c(=O)c2cc1Cl [6-Chloro-7-methoxy-3-[2-(6-methoxy-1,3,3a,4,5,9b-hexahydro-benzo[e]isoindol-2-yl)-ethyl]-1H-quinazoline-2,4-dione]	9.27
COc1cc2c(=O)n(CCN3C[C@@H]4CCc5c(OC)cccc5[C@@H]4C3)c(=O)n(C)c2cc1OC [6,7-Dimethoxy-3-[2-(6-methoxy-1,3,3a,4,5,9b-hexahydro-benzo[e]isoindol-2-yl)-ethyl]-1-methyl-1H-quinazoline-2,4-dione]	3.31
COc1cccc2c1CC[C@H]1CN(CCn3c(=O)[nH]c4c(C)c(OC)sc4c3=O)C[C@@H]21 [6-Methoxy-3-[2-(6-methoxy-1,3,3a,4,5,9b-hexahydro-benzo[e]isoindol-2-yl)-ethyl]-7-methyl-1H-thieno[3,2-d]pyrimidine-2,4-dione]	7.14
COc1ccc2[nH]c(=O)n(CCN3C[C@@H]4CCc5c(OC)cccc5[C@@H]4C3)c(=O)c2c1 [6-Methoxy-3-[2-(6-methoxy-1,3,3a,4,5,9b-hexahydro-benzo[e]isoindol-2-yl)-ethyl]-1H-quinazoline-2,4-dione]	3.76
COc1cccc2c1CC[C@H]1CN(CCn3c(=O)[nH]c4c(C(C)C)c(OC)sc4c3=O)C[C@@H]21 [7-Isopropyl-6-methoxy-3-[2-(6-methoxy-1,3,3a,4,5,9b-hexahydro-benzo[e]isoindol-2-yl)-ethyl]-1H-thieno[3,2-d]pyrimidine-2,4-dione]	2.31

Structure (SMILES)	Ki [nM]
COc1cccc2c1CC[C@H]1CN(CCn3c(=O)[nH]c4ccncc4c3=O)C[C@@H]21 [3-[2-(6-Methoxy-1,3,3a,4,5,9b-hexahydro-benzo[e]isoindol-2-yl)-ethyl]-1H-pyrido[4,3-d]pyrimidine-2,4-dione]	10.6
COc1cc2c(cc1OC)CN(CCN1C[C@@H]3CCc4c(OC)cccc4[C@@H]3C1)CC2 [2-[2-(6,7-Dimethoxy-3,4-dihydro-1H-isoquinolin-2-yl)-ethyl]-6-methoxy-2,3,3a,4,5,9b-hexahydro-1H-benzo[e]isoindole]	116
COc1ccc2c(=O)n(CCN3C[C@@H]4CCc5c(OC)cccc5[C@@H]4C3)c(=O)[nH]c2c1 [7-Methoxy-3-[2-(6-methoxy-1,3,3a,4,5,9b-hexahydro-benzo[e]isoindol-2-yl)-ethyl]-1H-quinazoline-2,4-dione]	0.66
COc1cccc2c1CC[C@H]1CN(CCn3c(=O)[nH]c4cccc(C)c4c3=O)C[C@@H]21 [3-[2-(6-Methoxy-1,3,3a,4,5,9b-hexahydro-benzo[e]isoindol-2-yl)-ethyl]-5-methyl-1H-quinazoline-2,4-dione]	1.04
COc1cccc2c1CC[C@H]1CN(CCn3c(=O)[nH]c4ccccc4c3=O)C[C@@H]21 [3-[2-(6-Methoxy-1,3,3a,4,5,9b-hexahydro-benzo[e]isoindol-2-yl)-ethyl]-1H-quinazoline-2,4-dione]	1.16
COc1cccc2c1CC[C@H]1CN(CCn3c(=O)[nH]c4cc(C#N)ccc4c3=O)C[C@@H]21 [3-[2-(6-Methoxy-1,3,3a,4,5,9b-hexahydro-benzo[e]isoindol-2-yl)-ethyl]-2,4-dioxo-1,2,3,4-tetrahydro-quinazoline-7-carbonitrile]	1.56
COc1cc2[nH]c(=O)n(CCN3C[C@@H]4CCc5c(OC)cccc5[C@@H]4C3)c(=O)c2cc1OC [6,7-Dimethoxy-3-[2-(6-methoxy-1,3,3a,4,5,9b-hexahydro-benzo[e]isoindol-2-yl)-ethyl]-1H-quinazoline-2,4-dione]	6.46
COc1cccc2c1CC[C@H]1CN(CCn3c(=O)[nH]c4[nH]ccc4c3=O)C[C@@H]21 [3-[2-(6-Methoxy-1,3,3a,4,5,9b-hexahydro-benzo[e]isoindol-2-yl)-ethyl]-1,7-dihydro-pyrrolo[2,3-d]pyrimidine-2,4-dione]	2.58
COC(=O)c1cc2[nH]c(=O)n(CCN3C[C@@H]4CCc5c(OC)cccc5[C@@H]4C3)c(=O)c2s1 [3-[2-(6-Methoxy-1,3,3a,4,5,9b-hexahydro-benzo[e]isoindol-2-yl)-ethyl]-2,4-dioxo-1,2,3,4-tetrahydro-thieno[3,2-d]pyrimidine-6-carboxylic acid methyl ester]	3.37
COc1cccc2c1CC[C@H]1CN(CCn3c(=O)[nH]c4c(C)c(C)ccc4c3=O)C[C@@H]21 [3-[2-(6-Methoxy-1,3,3a,4,5,9b-hexahydro-benzo[e]isoindol-2-yl)-ethyl]-7,8-dimethyl-1H-quinazoline-2,4-dione]	1.32
COc1cccc2c1CC[C@H]1CN(CCn3c(=O)[nH]c4cccc(Cl)c4c3=O)C[C@@H]21 [5-Chloro-3-[2-(6-methoxy-1,3,3a,4,5,9b-hexahydro-benzo[e]isoindol-2-yl)-ethyl]-1H-quinazoline-2,4-dione]	0.92
COC(=O)c1ccc2c(=O)n(CCN3C[C@@H]4CCc5c(OC)cccc5[C@@H]4C3)c(=O)[nH]c2c1 [3-[2-(6-Methoxy-1,3,3a,4,5,9b-hexahydro-benzo[e]isoindol-2-yl)-ethyl]-2,4-dioxo-1,2,3,4-tetrahydro-quinazoline-7-carboxylic acid methyl ester]	1.64
COc1cccc2c1CC[C@H]1CN(CCn3c(=O)[nH]c4sccc4c3=O)C[C@@H]21 [3-[2-(6-Methoxy-1,3,3a,4,5,9b-hexahydro-benzo[e]isoindol-2-yl)-ethyl]-1H-thieno[2,3-d]pyrimidine-2,4-dione]	2.11
COc1cccc2c1CC[C@H]1CN(CCn3c(=O)[nH]c4cc(Cl)ccc4c3=O)C[C@@H]21 [7-Chloro-3-[2-(6-methoxy-1,3,3a,4,5,9b-hexahydro-benzo[e]isoindol-2-yl)-ethyl]-1H-quinazoline-2,4-dione]	2.71
COc1cccc2c1CC[C@H]1CN(CCn3c(=O)[nH]c4cccnc4c3=O)C[C@@H]21 [3-[2-(6-Methoxy-1,3,3a,4,5,9b-hexahydro-benzo[e]isoindol-2-yl)-ethyl]-1H-pyrido[3,2-d]pyrimidine-2,4-dione]	8.2
COc1cc2[nH]c(=O)n(CCN3C[C@@H]4CCc5c(OC)cccc5[C@@H]4C3)c(=O)c2s1 [6-Methoxy-3-[2-(6-methoxy-1,3,3a,4,5,9b-hexahydro-benzo[e]isoindol-2-yl)-ethyl]-1H-thieno[3,2-d]pyrimidine-2,4-dione]	0.74
COc1cccc2c1CC[C@H]1CN(CCn3c(=O)[nH]c4nccnc4c3=O)C[C@@H]21 [3-[2-(6-Methoxy-1,3,3a,4,5,9b-hexahydro-benzo[e]isoindol-2-yl)-ethyl]-1H-pteridine-2,4-dione]	12.6
